Assay results: patent US20020111274A1, “1-alkyl-3-[1-(substituted phenyl) benzotriazol-6-yl] uracils” (BASF Aktiengesellschaft, priority 2000, published 2002)

Key:
Design in all cases: scale not given here
[1] = system: ABUTH Velvetleaf; experiment: Postemergence herbicidal evaluation, ABUTH; assay type: in vivo, Abutilon theophrasti, Medic.; conditions: postemergence spray, rated about two-three weeks after treatment
Outline: (§1)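 Plants are raised for roughly two weeks, then treated postemergence with compound dispersed in acetone/water (80/20) plus 1.0% seed oil adjuvant, at rates of about 0.006 kg to 0.400 kg per hectare. After greenhouse care, damage is scored two to three weeks later.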

[2] = system: AMBEL Ragweed, Common; experiment: Postemergence herbicidal evaluation, AMBEL; assay type: in vivo, Ambrosia artemisifolia, L.; conditions: postemergence spray, rated about two-three weeks after treatment
Outline: as §1

[3] = system: CASOB Sicklepod; experiment: Postemergence herbicidal evaluation, CASOB; assay type: in vivo, Cassia obtusifolia, L.; conditions: postemergence spray, rated about two-three weeks after treatment
Outline: as §1

[4] = system: CHEAL Lambsquarters, Common; experiment: Postemergence herbicidal evaluation, CHEAL; assay type: in vivo, Chenopodium album, L.; conditions: postemergence spray, rated about two-three weeks after treatment
Outline: as §1

[5] = system: ECHOG Barnyardgrass; experiment: Postemergence herbicidal evaluation, ECHOG; assay type: in vivo, Echinochloa crus-galli, (L.) Beau; conditions: postemergence spray, rated about two-three weeks after treatment
Outline: as §1

[6] = system: GALAP Galium; experiment: Postemergence herbicidal evaluation, GALAP; assay type: in vivo, Galium aparine; conditions: postemergence spray, rated about two-three weeks after treatment
Outline: as §1

[7] = system: IPOHE Morningglory, Ivyleaf; experiment: Postemergence herbicidal evaluation, IPOHE; assay type: in vivo, Ipomoea hederacea, (L.) Jacq.; conditions: postemergence spray, rated about two-three weeks after treatment
Outline: as §1

[8] = system: SETVI Foxtail, Green; experiment: Postemergence herbicidal evaluation, SETVI; assay type: in vivo, Setaria viridis, (L.) Beau; conditions: postemergence spray, rated about two-three weeks after treatment
Outline: as §1

[9] = system: GLXMAW Soybean, Williams; experiment: Postemergence herbicidal evaluation, GLXMAW; assay type: in vivo, Glycine max, (L.) Merr. cv Williams; conditions: postemergence spray, rated about two-three weeks after treatment
Outline: as §1

[10] = system: TRZAWR Wheat, Winter, cv Riband; experiment: Postemergence herbicidal evaluation, TRZAWR; assay type: in vivo, Triticum aestivum; conditions: postemergence spray, rated about two-three weeks after treatment
Outline: as §1

[11] = system: ORYSAT Rice, Tebonnet; experiment: Postemergence herbicidal evaluation, ORYSAT; assay type: in vivo, Oryza sativa, (L.); conditions: postemergence spray, rated about two-three weeks after treatment
Outline: as §1

[12] = system: ZEAMX Corn, Field; experiment: Postemergence herbicidal evaluation, ZEAMX; assay type: in vivo, Zea mays, L. (Sammel-Bezeichnung); conditions: postemergence spray, rated about two-three weeks after treatment
Outline: as §1

[13] = system: ABUTH Velvetleaf; experiment: Preemergence herbicidal evaluation, ABUTH; assay type: in vivo, Abutilon theophrasti, Medic.; conditions: preemergence
Outline: (§2)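 Compound applied preemergence as an aqueous acetone spray onto freshly planted cups, dose equivalent approx. 0.013 to 0.800 kg/ha. Evaluation by rating at weeks 4–5.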

[14] = system: AMBEL Ragweed, Common; experiment: Preemergence herbicidal evaluation, AMBEL; assay type: in vivo, Ambrosia artemisifolia, L.; conditions: preemergence
Outline: as §2

[15] = system: CASOB Sicklepod; experiment: Preemergence herbicidal evaluation, CASOB; assay type: in vivo, Cassia obtusifolia, L.; conditions: preemergence
Outline: as §2

[16] = system: CHEAL Lambsquarters, Common; experiment: Preemergence herbicidal evaluation, CHEAL; assay type: in vivo, Chenopodium album, L.; conditions: preemergence
Outline: as §2

[17] = system: ECHOG Barnyardgrass; experiment: Preemergence herbicidal evaluation, ECHOG; assay type: in vivo, Echinochloa crus-galli, (L.) Beau; conditions: preemergence
Outline: as §2

[18] = system: GALAP Galium; experiment: Preemergence herbicidal evaluation, GALAP; assay type: in vivo, Galium aparine; conditions: preemergence
Outline: as §2

[19] = system: IPOHE Morningglory, Ivyleaf; experiment: Preemergence herbicidal evaluation, IPOHE; assay type: in vivo, Ipomoea hederacea, (L.) Jacq.; conditions: preemergence
Outline: as §2

[20] = system: SETVI Foxtail, Green; experiment: Preemergence herbicidal evaluation, SETVI; assay type: in vivo, Setaria viridis, (L.) Beau; conditions: preemergence
Outline: as §2

[21] = system: GLXMAW Soybean, Williams; experiment: Preemergence herbicidal evaluation, GLXMAW; assay type: in vivo, Glycine max, (L.) Merr. cv Williams; conditions: preemergence
Outline: as §2

[22] = system: TRZAWR Wheat, Winter, cv Riband; experiment: Preemergence herbicidal evaluation, TRZAWR; assay type: in vivo, Triticum aestivum; conditions: preemergence
Outline: as §2

[23] = system: ORYSAT Rice, Tebonnet; experiment: Preemergence herbicidal evaluation, ORYSAT; assay type: in vivo, Oryza sativa, (L.); conditions: preemergence
Outline: as §2

[24] = system: ZEAMX Corn, Field; experiment: Preemergence herbicidal evaluation, ZEAMX; assay type: in vivo, Zea mays, L. (Sammel-Bezeichnung); conditions: preemergence
Outline: as §2

## COCc1ccccc1-n1nnc2cc(F)c(-n3c(=O)cc(C(F)(F)F)n(C)c3=O)cc21 [Example 26]
[1]; 0.008 kg/ha
  Postemergence herbicidal rating ABUTH: 9.0
[1]; 0.016 kg/ha
  Postemergence herbicidal rating ABUTH: 9.0
[1]; 0.032 kg/ha
  Postemergence herbicidal rating ABUTH: 9.0
[1]; 0.062 kg/ha
  Postemergence herbicidal rating ABUTH: 9.0
[2]; 0.008 kg/ha
  Postemergence herbicidal rating AMBEL: 4.0
[2]; 0.016 kg/ha
  Postemergence herbicidal rating AMBEL: 6.0
[2]; 0.032 kg/ha
  Postemergence herbicidal rating AMBEL: 7.0
[2]; 0.062 kg/ha
  Postemergence herbicidal rating AMBEL: 9.0
[3]; 0.008 kg/ha
  Postemergence herbicidal rating CASOB: 1.0
[3]; 0.016 kg/ha
  Postemergence herbicidal rating CASOB: 2.0
[3]; 0.032 kg/ha
  Postemergence herbicidal rating CASOB: 2.0
[3]; 0.062 kg/ha
  Postemergence herbicidal rating CASOB: 4.0
[4]; 0.008 kg/ha
  Postemergence herbicidal rating CHEAL: 2.0
[4]; 0.016 kg/ha
  Postemergence herbicidal rating CHEAL: 7.0
[4]; 0.032 kg/ha
  Postemergence herbicidal rating CHEAL: 9.0
[5]; 0.008 kg/ha
  Postemergence herbicidal rating ECHCG: 1.0
[5]; 0.016 kg/ha
  Postemergence herbicidal rating ECHCG: 1.0
[5]; 0.032 kg/ha
  Postemergence herbicidal rating ECHCG: 1.0
[5]; 0.062 kg/ha
  Postemergence herbicidal rating ECHCG: 3.0
[6]; 0.008 kg/ha
  Postemergence herbicidal rating GALAP: 1.0
[6]; 0.016 kg/ha
  Postemergence herbicidal rating GALAP: 1.0
[6]; 0.032 kg/ha
  Postemergence herbicidal rating GALAP: 2.0
[6]; 0.062 kg/ha
  Postemergence herbicidal rating GALAP: 6.0
[7]; 0.008 kg/ha
  Postemergence herbicidal rating IPOHE: 4.0
[7]; 0.016 kg/ha
  Postemergence herbicidal rating IPOHE: 9.0
[7]; 0.032 kg/ha
  Postemergence herbicidal rating IPOHE: 9.0
[7]; 0.062 kg/ha
  Postemergence herbicidal rating IPOHE: 9.0
[8]; 0.008 kg/ha
  Postemergence herbicidal rating SETVI: 1.0
[8]; 0.016 kg/ha
  Postemergence herbicidal rating SETVI: 5.0
[8]; 0.032 kg/ha
  Postemergence herbicidal rating SETVI: 2.0
[8]; 0.062 kg/ha
  Postemergence herbicidal rating SETVI: 5.0
[9]; 0.008 kg/ha
  Postemergence herbicidal rating GLXMAW: 4.5
[9]; 0.016 kg/ha
  Postemergence herbicidal rating GLXMAW: 5.0
[9]; 0.032 kg/ha
  Postemergence herbicidal rating GLXMAW: 5.5
[9]; 0.062 kg/ha
  Postemergence herbicidal rating GLXMAW: 9.0
[10]; 0.008 kg/ha
  Postemergence herbicidal rating TRZAWR: 2.0
[10]; 0.016 kg/ha
  Postemergence herbicidal rating TRZAWR: 2.5
[10]; 0.032 kg/ha
  Postemergence herbicidal rating TRZAWR: 3.0
[10]; 0.062 kg/ha
  Postemergence herbicidal rating TRZAWR: 4.0
[11]; 0.008 kg/ha
  Postemergence herbicidal rating ORYSAT: 2.0
[11]; 0.016 kg/ha
  Postemergence herbicidal rating ORYSAT: 2.0
[11]; 0.032 kg/ha
  Postemergence herbicidal rating ORYSAT: 3.0
[11]; 0.062 kg/ha
  Postemergence herbicidal rating ORYSAT: 4.5
[12]; 0.008 kg/ha
  Postemergence herbicidal rating ZEAMX: 3.5
[12]; 0.016 kg/ha
  Postemergence herbicidal rating ZEAMX: 4.0
[12]; 0.032 kg/ha
  Postemergence herbicidal rating ZEAMX: 4.0
[12]; 0.062 kg/ha
  Postemergence herbicidal rating ZEAMX: 6.5
[13]; rate 0.016 kg/ha
  ABUTH herbicidal rating: 9.0
[13]; rate 0.032 kg/ha
  ABUTH herbicidal rating: 9.0
[13]; rate 0.062 kg/ha
  ABUTH herbicidal rating: 9.0
[13]; rate 0.125 kg/ha
  ABUTH herbicidal rating: 9.0
[14]; rate 0.016 kg/ha
  AMBEL herbicidal rating: 2.0
[14]; rate 0.032 kg/ha
  AMBEL herbicidal rating: 7.0
[14]; rate 0.062 kg/ha
  AMBEL herbicidal rating: 7.0
[14]; rate 0.125 kg/ha
  AMBEL herbicidal rating: 9.0
[15]; rate 0.016 kg/ha
  CASOB herbicidal rating: 0.0
[15]; rate 0.032 kg/ha
  CASOB herbicidal rating: 0.0
[15]; rate 0.062 kg/ha
  CASOB herbicidal rating: 7.0
[15]; rate 0.125 kg/ha
  CASOB herbicidal rating: 7.0
[16]; rate 0.032 kg/ha
  CHEAL herbicidal rating: 7.0
[16]; rate 0.062 kg/ha
  CHEAL herbicidal rating: 9.0
[16]; rate 0.125 kg/ha
  CHEAL herbicidal rating: 9.0
[17]; rate 0.016 kg/ha
  ECHCG herbicidal rating: 1.0
[17]; rate 0.032 kg/ha
  ECHCG herbicidal rating: 6.0
[17]; rate 0.062 kg/ha
  ECHCG herbicidal rating: 7.0
[17]; rate 0.125 kg/ha
  ECHCG herbicidal rating: 9.0
[18]; rate 0.016 kg/ha
  GALAP herbicidal rating: 0.0
[18]; rate 0.032 kg/ha
  GALAP herbicidal rating: 0.0
[18]; rate 0.062 kg/ha
  GALAP herbicidal rating: 7.0
[18]; rate 0.125 kg/ha
  GALAP herbicidal rating: 8.0
[19]; rate 0.016 kg/ha
  IPOHE herbicidal rating: 0.0
[19]; rate 0.032 kg/ha
  IPOHE herbicidal rating: 9.0
[19]; rate 0.062 kg/ha
  IPOHE herbicidal rating: 6.0
[19]; rate 0.125 kg/ha
  IPOHE herbicidal rating: 9.0
[20]; rate 0.016 kg/ha
  SETVI herbicidal rating: 2.0
[20]; rate 0.032 kg/ha
  SETVI herbicidal rating: 9.0
[20]; rate 0.062 kg/ha
  SETVI herbicidal rating: 9.0
[20]; rate 0.125 kg/ha
  SETVI herbicidal rating: 9.0
[21]; rate 0.016 kg/ha
  GLXMAW herbicidal rating: 1.0
[21]; rate 0.032 kg/ha
  GLXMAW herbicidal rating: 2.0
[21]; rate 0.062 kg/ha
  GLXMAW herbicidal rating: 9.0
[21]; rate 0.125 kg/ha
  GLXMAW herbicidal rating: 5.0
[22]; rate 0.016 kg/ha
  TRZAWR herbicidal rating: 0.0
[22]; rate 0.062 kg/ha
  TRZAWR herbicidal rating: 6.0
[22]; rate 0.125 kg/ha
  TRZAWR herbicidal rating: 8.0
[23]; rate 0.016 kg/ha
  ORYSAT herbicidal rating: 0.0
[23]; rate 0.032 kg/ha
  ORYSAT herbicidal rating: 3.0
[23]; rate 0.062 kg/ha
  ORYSAT herbicidal rating: 5.0
[23]; rate 0.125 kg/ha
  ORYSAT herbicidal rating: 7.0
[24]; rate 0.016 kg/ha
  ZEAMX herbicidal rating: 1.0
[24]; rate 0.032 kg/ha
  ZEAMX herbicidal rating: 4.0
[24]; rate 0.062 kg/ha
  ZEAMX herbicidal rating: 7.0
[24]; rate 0.125 kg/ha
  ZEAMX herbicidal rating: 7.0
